Columns and labels:
[1] = tested on: pRb (Ser780); assay: High content imaging of Rb phosphorylation (Ser780), MCF7; assay type: cell-based; conditions: Homo sapiens, mean ± Stdev n = 2
Experimental: Relative IC50/EC50 values were determined by curve fitting to a four parameter logistic equation: Y = bottom + ((top-bottom)/ (1+exp(HillSlope*(X – LnIC50)), where X is the natural log of dose/concentration, Y is response, decreasing as X increases, top and bottom are plateaus in the same units as Y, lnIC50 is the natural log of potency, in the same log units as X, and HillSlope measures the steepness of the curve. Data were plotted using GraphPad Prism.
As controls, cells were treated with 10 µM palbociclib or vehicle ( 0.2 % v/v DMSO). Additional details for cell-based assays are provided in the Supplemental Methods. […]
www.impactjournals.com/oncotarget/ Oncotarget Supplementary Materials
Preclinical characterization of abemaciclib in hormone receptor […]
METHODS High content imaging cell-based assays for monitoring phosphorylation of Rb (ser780), G1 arrest and
Enzyme kinetics of CDK6/cyclin D3 complexes Cells were fixed with para-formaldehyde and Rb phosphorylation at Serine 780 was detected using CDK6/cyclin D3 activity was measured by the a primary mouse anti-Rb (PS780) antibody followed phosphorylation of CTRF using [g-33P] […] Plates were read in an kinase buffer containing 68 mM Hepes at pH 7.5, 6.67 mM Acumen Explorer eX3 (TTP Labtech). […]
(EDTA) was used to determine the level of background evaluated by measuring PI signal using high content 33P in the absence of enzyme activity. […]

[2] = tested on: MCF7, MDA-MB-361 and EFM-19 cells; assay: Cell morphology by bright field microscopy; assay type: cell-based, human; conditions: 0.5 µM, 3 DT
Experimental: (A–D) Cells were treated with 0.2% DMSO (A MDA-
3 DT and side scatter (SSC) analysis was carried out using flow cytometry and analyzed with FlowJo X software.

IC50 [1]: 0.013 ± 0.002 µM
Compound: CCN1CCN(Cc2ccc(Nc3ncc(F)c(-c4cc(F)c5nc(C)n(C(C)C)c5c4)n3)nc2)CC1 [abemaciclib, Abemaciclib]
cell morphology [2]: larger and flatter compared to vehicle-treated cells

Reference: paper PMC5642494 (Oncotarget, 2017)
